The values below come from patent US10450274B2, “Quinoline compounds, preparation methods thereof, and uses thereof as urate transporter inhibitor drug” (HINOVA PHARMACEUTICALS INC., priority 2015, dated 2019).

pIC50: −log10 of the molar value. Several values for one entry are separate records, joined by “and”; a condition that tells them apart may be missing. Equal values may be shown once.

The target of one experiment is T1, hURAT1 (Homo sapiens, UniProt Q96S37).
T1 sequence (Q96S37 1-553): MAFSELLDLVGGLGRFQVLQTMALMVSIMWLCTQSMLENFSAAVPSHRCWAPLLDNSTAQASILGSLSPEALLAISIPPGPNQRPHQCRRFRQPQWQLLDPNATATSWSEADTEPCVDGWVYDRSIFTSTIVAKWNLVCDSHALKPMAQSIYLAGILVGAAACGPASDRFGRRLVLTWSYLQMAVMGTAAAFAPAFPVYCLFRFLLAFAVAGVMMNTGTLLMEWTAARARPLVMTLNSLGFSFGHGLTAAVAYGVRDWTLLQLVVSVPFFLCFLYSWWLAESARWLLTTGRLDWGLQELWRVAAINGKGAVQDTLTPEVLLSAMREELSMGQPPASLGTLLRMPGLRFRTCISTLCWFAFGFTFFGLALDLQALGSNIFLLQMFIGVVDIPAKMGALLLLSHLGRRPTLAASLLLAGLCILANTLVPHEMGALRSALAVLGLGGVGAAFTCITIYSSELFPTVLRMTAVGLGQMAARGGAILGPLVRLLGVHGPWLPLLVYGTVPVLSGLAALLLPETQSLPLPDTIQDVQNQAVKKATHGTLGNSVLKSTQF
Put plainly: Inhibitory activity against URAT1: 14C-labelled uric acid uptake in HEK-293t cells stably expressing hURAT1. The format is cell-based. As to conditions: HEK-293t/hURAT1 cells, 14C uric acid uptake, 5 minutes at room temperature; Ref Cpd 2, 83, Ref Cpd 3 and 129 are averages of head-to-head tests; read-out: IC50 (nM) of hURAT1 inhibitory activity. An excerpt: • Test example: Determination of the inhibitory activity of compounds according to the present invention against URAT1 Experimental Materials • FBS (Invitrogen, Cat. No. 10099141) • Trypsin (Invitrogen, Cat. No. 25200056) • DPBS (Invitrogen, Cat. No. 14190250) • DMEM (Invitrogen, Cat. No. 10564) • Penicillin-Streptomycin (Invitrogen, Cat. No. 15070-063) • TransIT-293 Transfection Reagent (MIRUS BIO, Cat. No. MIR2706) • Opti-MEM® I Reduced Serum Medium (Invitrogen, Cat. No. 31985-070) • URAT1 plasmid (Genecopoeia, Cat. No. EX-T4563-M03) • Uric acid [8-14C] (ARC, Cat. No. ARC0513-250UCI) • Ultima Gold™ XR (PerkinElmer, Cat. No. 6013111) • Benzbromarone (J&K Scientific, Cat. No. 3562-84-3) • D-Gluconic acid sodium salt (Aladdin, Cat. No. 527-07-1) • Potassium D-gluconate (Aladdin, Cat. No. 299-27-4) • Calcium gluconate (Aladdin, Cat. No. 299-28-5) • DMSO (Sigma, Cat. No. D2650) • Tube, 15 ml (Greiner, Cat. No. 07030115) • Tube, 50 ml (BD Falcon, Cat. No. 352098) • Poly-D-lysine 96-well microplates (BD, Cat. No. 356461) • Isoplate-96 Microplate (PERKIN ELMER, Cat. No. 6005040) Experimental Method:
Cell Culture: • 1. The HEK-293t cells that expressed the stable expression of hURAT1 were cultured in DMEM medium containing 10% FBS and 1% P/S, and incubated overnight in the incubator at 37° C. under 5% carbon dioxide. • 2. the culture medium was removed, and the cells were washed with PBS, and then the pancreatin was added to digest for 2 minutes. After the cell is separated from the dish, 10 ml of medium was added to terminate digestion. • 3. The cells were placed into a centrifugal apparatus and centrifugated for 2 minutes at the speed of 1000 rpm, followed by the addition of fresh 10 mL medium to resuspend the cells, and calculate the number of cells. The number of cells was adjusted to 4×10^5 cells/mL. • 4. the above counted cells were inoculated into the 96-well plate at 100 μL/well. • 5. The 96-well plate with inoculated cells was placed in a 37° C. cell incubator and cultivated overnight.
The uric acid absorption experiment labeled with isotope C14: • 1. 5 mL of Cl-free HBSS buffer was added to a 15 mL centrifuge tube, followed by the addition of the uric acid labeled with C14, and the concentration of uric acid was 2 uCi/ml. • 2. The medium in the 96-well plate that was previously cultivated overnight was removed, and the plate was washed three times with […] preheated Cl-free HBSS buffer. • 3. The buffer in the well-washed 96-well plate was removed. • 4. […] Cl-free HBSS buffer containing C-14 labeled uric acid was added into each well in the cleaned 96-well plate, and then DMSO solution of the compound that needs to be tested was added. • 5. After the 96-well plate stood for 5 minutes at room temperature, all the liquid in it was removed. • 6. […] precooled Cl-free HBSS buffer was added to wash the plate three times. • 7. After the remained liquid in the plates was completely removed, 50 μL cell lysis was added to each well, and the plate was agitated on the mixer at a speed of 600 revolutions/min for 10 minutes. • 8. After 50 μL Ultima Gold™ XR scitillation cocktail fluid was added, the plate was continued to agitate for 10 minutes. The well-agitated plate was sealed, and the data was read on MicroBeta Trilux. • 9. The test compound was dissolved in DMSO, and DMSO at the same concentration was added to the HEK293/hURAT1 cell well without test compounds. […] The radiation value obtained from the well containing DMSO is considered to be 100% of the cell uptake. The IC50 values of compounds can be calculated by the inhibition rate at different concentrations.
Among them, reference compound 1 was synthesized according to the method described in patent WO 2011/159839 A2. Reference compound 2 and reference compound 3 were synthesized according to the method described in patent WO 2014/183555 A1, and they were head-to-head tested with compounds 83 and 129 respectively under the same conditions.
The term IC50 denotes the concentration that inhibits the measured activity by half. With `CCC(CC)(Sc1ccnc2ccc(-c3cccc(OC4CCC4)c3)cc12)C(=O)O` [Compound 111, 2-(6-(3-cyclobutyloxy-phenyl)-quinolin-4-ylthio)-2-ethylbutanoic acid], the IC50 worked out at 267 nM.
For `CCC(CC)(Sc1ccnc2ccc(-c3cccc(OC4CC4)c3)cc12)C(=O)O` [Compound 112, 2-(6-(3-cyclopropyloxy-phenyl)-quinolin-4-ylthio)-2-ethylbutanoic acid], the IC50 was 147 nM.
Still for that read-out and setting: under `CCOc1cccc(-c2ccc3nccc(SC(CC)(CC)C(=O)O)c3c2)c1` [Compound 113, 2-(6-(3-ethoxy-phenyl)-quinolin-4-ylthio)-2-ethylbutanoic acid] stands 109 nM.
`CCCC(CCC)(Sc1ccnc2ccc(Br)cc12)C(=O)O` [Compound 114, 2-(6-bromoquinolin-4-ylthio)-2-propylpentanoic acid]: the IC50 amounted to 203 nM.
On the same count and under the same terms, the value for `COc1cc(-c2ccc3nccc(SC(C)(C)C(=O)O)c3c2)ccn1` [Compound 115, 2-(6-(2-methoxypyridin-4-yl)quinolin-4-ylthio)-2-methylpropanoic acid] was 79 nM.
On the same count and under the same terms, under `CCC(CC)(Sc1ccnc2ccc(-c3ccnc(OC)c3)cc12)C(=O)O` [Compound 116, 2-(6-(2-methoxypyridin-4-yl)quinolin-4-ylthio)-2-ethylbutanoic acid] stands 98 nM.
As for `CC(C)(Sc1ccnc2ccc(-c3ccnc(F)c3)cc12)C(=O)O` [Compound 117, 2-(6-(2-fluoropyridin-4-yl)-quinolin-4-ylthio)-2-methylpropanoic acid], the IC50 is 272 nM.
On the same count and under the same terms, under `CCC(CC)(Sc1ccnc2ccc(-c3ccncc3)cc12)C(=O)O` [Compound 119, 2-(6-(pyridin-4-yl)quinolin-4-ylthio)-2-ethylbutanoic acid] stands 133 nM; under `Cc1cc(-c2ccc3nccc(SC(C)(C)C(=O)O)c3c2)ccn1` [Compound 120, 2-(6-(2-methylpyridin-4-yl)quinolin-4-ylthio)-2-methylpropanoic acid], 1240 nM; under `CCC(CC)(Sc1ccnc2ccc(-c3ccnc(C)c3)cc12)C(=O)O` [Compound 121, 2-(6-(2-methylpyridin-4-yl)-quinolin-4-ylthio)-2-ethylbutanoic acid], 360 nM.
Consider `CCC(CC)(Sc1ccnc2ccccc12)C(=O)O` [Compound 129], for which the concentration for half-maximal inhibition (IC50) was found to be 201 nM.
Still for that read-out and setting: under `O=C(O)C1(Sc2ccnc3ccc(Br)cc23)CCC1` [Ref Cpd 2, reference compound] stands 138 nM.
Still for that read-out and setting: under `O=C(O)C1(Sc2ccnc3ccccc23)CCC1` [Ref Cpd 3, reference compound] stands 794 nM.
On to `CC(C)(Sc1ccncc1-c1ccc(C#N)c2ccccc12)C(=O)O` [Ref cpd 1 (RDEA3170), reference compound], for which the IC50 worked out at 154 nM.

The same experiment, now with this note: average of the multiple head-to-head comparison tests, Table 2; read-out: Average (IC50 of multiple determinations).
Usually pIC50 stands for −log10 of the IC50, conventionally taken in molar units. As for `O=C(O)C1(Sc2ccnc3ccc(Br)cc23)CCC1` [Ref Cpd 2, reference compound], the pIC50 was 6.86.

The same experiment, now with this note: single determinations of multiple head-to-head tests, Ref cpd 2 vs Cpd 83; read-out: Multiple determination data (IC50).
`O=C(O)C1(Sc2ccnc3ccc(Br)cc23)CCC1` [Ref Cpd 2, reference compound]: the pIC50 was 7.14 and 6.73 and 6.76 and 6.79 and 6.84 and 6.90 and 7.00.
